Reference: patent publication US20220142960A1, “Compositions and Methods for Treating Metabolic Disorders” (VeroScience LLC, priority 2013, published 2022)

Legend:
Format in all cases: in vivo, rat
dopamine neurons in SuMN = assay: Microdialysis of dopamine metabolites at SCN after intra-SuMN AMPA infusion; conditions: compared to vehicle
Method: Female Sprague-Dawley rats (12) were housed in a room at constant temperature and humidity with a 14/10 light/dark cycle were fed regular diet ad libitum. Each rat was microinjected with retrograde tracer fluorogold (4%, 20 nl) to SCN and allowed to rest for 10 days. The rats were then perfused with 4% paraformaldehyde and the brains were dissected for immunohistochemistry. Dopamine neurons projecting to SCN were identified with double immunochemistry of fluorogold (FG) and tyrosine hydroxylase (TH). To verify functional connection, dopamine metabolites at SCN were measured by microdialysis in freely moving rats following infusion of AMPA (0.3 mM/0.5 µl) to SuMN.

[1] = test system: high fat diet-resistant rats (HF-R); assay: Chronic intra-SuMN AMPA treatment of high fat diet-resistant rats
Method: (§1) In separate protocols, female Sprague-Dawley high fat diet-resistant rats (HF-R) (16 animals) were fed high fat diets for 4 months or female Sprague-Dawley high fat diet-sensitive rats (HF-S) (16 animals) were fed high fat diets for 3 months. Following initial feeding protocols, AMPA (0.03 mM/0.5 µl) or vehicle was microinjected into SuMN daily for 13 (HF-R animals) or 14 d (HF-S) at the onset of locomotor activity. At the end of AMPA treatment, HF-R animals were sacrificed by decapitation. Trunk blood was collected for glucose and insulin analysis retroperitoneal fat mass were weighed. At the end of AMPA treatment, HF-S animals were subjected to glucose tolerance tests (GTT) and two days after GTT, were sacrificed. Trunk blood was collected for glucose and insulin analysis and retroperitoneal fat mass were weighed. Body weight and food consumption were measured daily throughout both protocols.

[2] = test system: high fat diet-sensitive rats (HF-S); assay: Chronic intra-SuMN AMPA treatment of high fat diet-sensitive rats, GTT
Method: as §1

[3] = test system: insulin resistant high fat fed rats; assay: NMDA agonist directed to the SuMN in high fat fed rats, GTT; conditions: female Sprague Dawley HFD-sensitive rats, cannula to SuMN daily for 2 weeks at offset of light, relative to vehicle, FIG. 6
Method: Treatment of insulin resistant high fat fed rats with an NMDA agonist directed to the SuMN improved insulin resistance and glucose intolerance. Female Sprague Dawley rats were fed a high fat diet for one month and those animals most sensitive to the diet (those gaining the most weight in the group) were then treated with either an NMDA agonist or vehicle for a three minute period at the offset of light (14 hour daily photoperiod) via a cannula directed to the SuMN daily for 2 weeks while maintained on the high fat diet. At the end of the treatment period, animals were subjected to a glucose tolerance test (GTT) (3 g/kg of glucose) and plasma samples were taken before and at 30, 60, 90, and 120 minutes after glucose treatment. Plasma samples were analyzed for glucose and insulin levels.

[4] = test system: insulin resistant rats on a high fat diet; assay: Dopamine infusion into the SCN of high fat fed SHR rats, GTT; conditions: male SHR rats on high fat diet
Method: Male SHR rats at approximately 12 weeks of age were fed a high fat diet for one month and were then treated with either dopamine or vehicle for a three minute period at the offset of light (14 hour daily photoperiod) via a cannula directed to the SCN daily for 2 weeks while maintained on the high fat diet. At the end of the treatment period, animals were subjected to a glucose tolerance test (GTT) (3 g/kg of glucose) and plasma samples were taken before and at 30, 60, 90, and 120 minutes after glucose treatment. Plasma samples were analyzed for glucose and insulin levels.

[5] = AMPA into SuMN daily for 13 d, versus vehicle, p<0.01
[6] = cannula to SCN daily for 2 weeks at offset of light, relative to vehicle, FIG. 7

SMILES: Cc1o[nH]c(=O)c1CC(N)C(=O)O (stereo not shown) [AMPA]
- dopamine metabolite HVA at SCN area (dopamine neurons in SuMN; intra-SuMN AMPA infusion 0.3 mM/0.5 µl, freely moving rats, p<0.05, FIG. 1A): significant elevations
- dopamine metabolite DOPAC at SCN area (dopamine neurons in SuMN; intra-SuMN AMPA infusion 0.3 mM/0.5 µl, freely moving rats, p<0.05, FIG. 1B): significant elevations
- serotonin metabolite 5-HIAA at the SCN (dopamine neurons in SuMN; intra-SuMN AMPA infusion, FIG. 1C): did produce a significant elevation
- body weight ([1]; AMPA 0.03 mM/0.5 µl into SuMN daily for 13 d at onset of locomotor activity, versus vehicle, p<0.05): significantly reduced
- retroperitoneal fat ([1]; AMPA into SuMN daily for 13 d, vehicle 13.4 g): 9.02 g
- daily food consumption ([1]; AMPA into SuMN daily for 13 d, vehicle 17.7 g, p<0.05): 13.7 g
- total abdominal fat ([1]; AMPA into SuMN daily for 13 d, vehicle 19.1 g): 12.9 g
- reduction of retroperitoneal fat [1, 5]: 33%
- reduction of total abdominal fat [1, 5]: 32%
- plasma glucose concentration during the GTT ([2]; AMPA 0.03 mM/0.5 µl into SuMN daily for 14 d, compared to vehicle): significantly reduced
- total area under the glucose GTT curve ([2]; AMPA into SuMN daily for 14 d): decreased
- basal plasma insulin level ([2]; AMPA into SuMN daily for 14 d, decreased from 2.2, P<0.05): 1.15 ng/mL
- basal plasma glucose level ([2]; AMPA into SuMN daily for 14 d, decreased from 114, P<0.05): 106 mg/dL
- Insulin resistant index (HOMA-IR) ([2]; AMPA into SuMN daily for 14 d, reduced from 13.0±1.79, p=0.018): 6.3±1.70

SMILES: CN[C@H](CC(=O)O)C(=O)O [NMDA]
- insulin resistance [3]: significantly improved
- plasma glucose levels during the GTT [3]: significantly reduced
- plasma insulin levels during the GTT [3]: significantly reduced
- insulin resistance [4, 6]: significantly improved
- plasma glucose levels during the GTT [4, 6]: significantly reduced
- plasma insulin levels during the GTT [4, 6]: significantly reduced

SMILES: NCCc1ccc(O)c(O)c1 [dopamine]
- insulin resistance [4, 6]: improved
- glucose intolerance ([4]; infusion directly into the SCN daily for 2 weeks): improved
